How the values were obtained:
Type in all cases: binding
KRAS G12D = target: T1, KRAS G12D (Homo sapiens, UniProt P01116, G12D); test: HTRF assay of K-Ras G12D interaction with SOS1 (PPI-HTRF); conditions: HTRF, 5 nM KRAS G12D; read-out: PPI-HTRF-5 nM KRAS G12D
T1 construct: made in house; host or cells: E. coli, e.g. BL21 (DE3)
In short: (§1)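 Read-out: HTRF ratio 665/620 nm (ex 337 nm) after ~10 min or longer. Donor anti-GST-Eu(K) on GST-K-Ras and acceptor anti-6His-XL665 on His-hSOS1, in HEPES pH 7.4 buffer with DTT, BSA and Igepal. Duplicate dilution series from 10 μM down to 0.01 μM gave IC50 values.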

KRAS G12S = target: T2, KRAS G12S (Homo sapiens, UniProt P01116, G12S); test: HTRF assay of K-Ras G12S interaction with SOS1 (PPI-HTRF); conditions: 5 nM KRAS G12S, read-out: PPI-HTRF-5 nM KRAS G12S
T2 construct: made in house; host or cells: E. coli, e.g. BL21 (DE3)
In short: as §1

KRAS WT = target: T3, KRAS WT (Homo sapiens, UniProt P01116); test: HTRF assay of wildtype K-Ras interaction with SOS1 (PPI-HTRF); conditions: HTRF, 5 nM KRAS WT; read-out: PPI-HTRF-5 nM KRAS WT
T3 construct: made in house; host or cells: E. coli, e.g. BL21 (DE3)
In short: as §1

T1 sequence (P01116 1-188 isoform P01116-2 G12D): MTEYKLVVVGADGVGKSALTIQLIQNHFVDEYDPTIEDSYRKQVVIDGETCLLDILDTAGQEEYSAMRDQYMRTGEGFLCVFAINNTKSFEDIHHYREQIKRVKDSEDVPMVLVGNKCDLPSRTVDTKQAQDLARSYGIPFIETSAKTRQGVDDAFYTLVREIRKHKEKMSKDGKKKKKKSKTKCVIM
T2 sequence (P01116 1-188 isoform P01116-2 G12S): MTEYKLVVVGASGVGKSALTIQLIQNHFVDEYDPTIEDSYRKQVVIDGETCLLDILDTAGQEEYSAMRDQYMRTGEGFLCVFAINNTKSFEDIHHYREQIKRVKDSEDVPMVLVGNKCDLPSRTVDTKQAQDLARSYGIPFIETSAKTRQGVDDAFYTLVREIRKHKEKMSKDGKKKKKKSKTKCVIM
T3 sequence (P01116 1-188 isoform P01116-2): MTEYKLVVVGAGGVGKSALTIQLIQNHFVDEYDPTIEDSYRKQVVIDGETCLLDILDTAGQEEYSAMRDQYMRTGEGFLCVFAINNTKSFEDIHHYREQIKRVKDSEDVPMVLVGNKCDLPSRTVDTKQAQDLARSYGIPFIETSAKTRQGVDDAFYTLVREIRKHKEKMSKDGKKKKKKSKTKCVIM

| Structure (SMILES) | IC50 (KRAS G12D) [µM] | IC50 (KRAS G12S) [µM] | IC50 (KRAS WT) [µM] |
| --- | --- | --- | --- |
| N#Cc1c(N)sc2c(F)ccc(-c3c(Cl)cc4c(N5CCC6(C5)NCC6(F)F)nc(OC[C@@]56CCCN5C[C@H](F)C6)nc4c3F)c12 (stereo partly drawn) [Compound 232, 2-amino-4-(6-chloro-4-(3,3-difluoro-1,6-diazaspiro[3.4]octan-6-yl)-8-fluoro-2-(((2R,7aS)-2-fluorotetrahydro-1H-pyrrolizin-7a(5H)-yl)methoxy)quinazolin-7-yl)-7-fluorobenzo[b]thiophene-3-carbonitrile] | < 5 | < 5 | < 5 |
| N#Cc1c(N)sc2c(F)ccc(-c3c(Cl)cc4c(N5CCC6(CCN6C(=O)n6ccnc6C#N)C5)nc(OC[C@@]56CCCN5C[C@H](F)C6)nc4c3F)c12 (stereo partly drawn) [Compound 287, 1-(6-(7-(2-amino-3-cyano-7-fluorobenzo[b]thiophen-4-yl)-6-chloro-8-fluoro-2-(((2R,7aS)-2-fluorotetrahydro-1H-pyrrolizin-7a(5H)-yl)methoxy)quinazolin-4-yl)-1,6-diazaspiro[3.4]octane-1-carbonyl)-1H-imidazole-2-carbonitrile] | < 5 | < 5 | < 5 |
| N#Cc1c(N)sc2c(F)ccc(-c3c(Cl)cc4c(N5CC[C@@]6(CCN6C(=O)n6cncn6)C5)nc(OC[C@@]56CCCN5C[C@H](F)C6)nc4c3F)c12 (single isomer, unassigned) [Compound 234] | < 5 | < 5 | < 5 |
| C[C@H](Oc1nc(N2CCCC3(CCN3C(=O)n3cncn3)C2)c2cc(Cl)c(-c3ccc(F)c4sc(N)c(C#N)c34)c(F)c2n1)[C@@H]1CCCN1C (stereo partly drawn) [Compound 201, 4-(4-(1-(1H-1,2,4-triazole-1-carbonyl)-1,6-diazaspiro[3.5]nonan-6-yl)-6-chloro-8-fluoro-2-((S)-1-((S)-1-methylpyrrolidin-2-yl)ethoxy)quinazolin-7-yl)-2-amino-7-fluorobenzo[b]thiophene-3-carbonitrile] | < 5 | < 5 | < 5 |

Further lines, results first:

| IC50 (KRAS G12D) [µM] | IC50 (KRAS G12S) [µM] | IC50 (KRAS WT) [µM] | Structure (SMILES) |
| --- | --- | --- | --- |
| < 5 | < 5 | < 5 | N#Cc1cn(C(=O)N2CCC23CCN(c2nc(OC[C@@]45CCCN4C[C@H](F)C5)nc4c(F)c(-c5ccc(F)c6sc(N)c(C#N)c56)c(Cl)cc24)C3)cn1 (stereo partly drawn) [Compound 310, 1-(6-(7-(2-amino-3-cyano-7-fluorobenzo[b]thiophen-4-yl)-6-chloro-8-fluoro-2-(((2R,7aS)-2-fluorotetrahydro-1H-pyrrolizin-7a(5H)-yl)methoxy)quinazolin-4-yl)-1,6-diazaspiro[3.4]octane-1-carbonyl)-1H-imidazole-4-carbonitrile] |
| < 5 | < 5 | < 5 | N#Cc1c(N)sc2c(F)ccc(-c3c(Cl)cc4c(N5CCC6(CCCN6C(=O)C6CC6(F)F)CC5)nc(OC[C@@]56CCCN5C[C@H](F)C6)nc4c3F)c12 (stereo partly drawn) [Compound 341, 2-amino-4-(6-chloro-4-(1-(2,2-difluorocyclopropane-1-carbonyl)-1,8-diazaspiro[4.5]decan-8-yl)-8-fluoro-2-(((2R,7aS)-2-fluorotetrahydro-1H-pyrrolizin-7a(5H)-yl)methoxy)quinazolin-7-yl)-7-fluorobenzo[b]thiophene-3-carbonitrile] |
| < 5 | < 5 | < 5 | COCc1ncn(C(=O)N2CCC23CCN(c2nc(OC[C@@]45CCCN4C[C@H](F)C5)nc4c(F)c(-c5ccc(F)c6sc(N)c(C#N)c56)c(Cl)cc24)C3)n1 (stereo partly drawn) [Compound 313, 2-amino-4-(6-chloro-8-fluoro-2-(((2R,7aS)-2-fluorotetrahydro-1H-pyrrolizin-7a(5H)-yl)methoxy)-4-(1-(3-(methoxymethyl)-1H-1,2,4-triazole-1-carbonyl)-1,6-diazaspiro[3.4]octan-6-yl)quinazolin-7-yl)-7-fluorobenzo[b]thiophene-3-carbonitrile] |

Reference: patent US20240116951A1, “HETEROCYCLIC COMPOUNDS AND USES THEREOF” (Kumquat Biosciences Inc., priority 2022, published 2024)
